How the values were obtained:
Assay type in all cases: cell-based
[1] = tested on: multi-resistant Staphylococcus aureus 206 (MRSA-206); assay: paper diffusion method drug sensitivity test, MRSA-206; conditions: 30 μg/tablet; for Zone of inhibition, MRSA-206: paper 6.35 mm diameter, LB plate, 37° C., 24 h, >17 mm sensitive, 15 mm-16 mm intermediary, <14 mm drug resistance; for inhibitory effect (in words) on multi-drug resistant Staphylococcus aureus 206: paper diffusion, summary of FIGS. 1-3 and Table 1
Procedure: (§1) The antimicrobial efficacy was determined by a paper diffusion method drug sensitivity test.
(§2) Experimental strains: multi-resistant Staphylococcus aureus 206 (MRSA-206), multi-resistant Staphylococcus aureus 575 (MRSA-575), multi-resistant Staphylococcus aureus 596 (MRSA-596). The experimental strain was identified by Huashan Hospital Affiliated to Fudan University (Institute of Antibiotic of Fudan University).
(§3) Drug sensitive paper: The drug sensitive paper was a special drug sensitive paper with a diameter of 6.35 mm and a water absorption of 0.02 mL. The control drug was vancomycin (30 μg/tablet); the test drugs were pleuromulin (30 μg/tablet), 7-chloro-1-cyclopropyl-6-fluoro-1,4-dihydro-4-oxoquinoline-3-carboxylic acid (30 μg/tablet) and pleuromulin 7-chloro-1-cyclopropyl-6-fluoro-1,4-dihydro-4-oxoquinoline-3-carboxylic acid ester (30 μg/tablet).
(§4) Reagents: LB agar medium, LA broth medium, 0.5% DMSO solution.
(§5) The experimental strains were inoculated in non-selective medium and placed in air at 37° C. for 24 h. A single colony that grows well and inoculate it into broth medium was incubate at 35° C.±2° C. for 6 hours, and LA broth medium was used to calibrate the concentration of the bacterial solution to 0.5 Mie turbidimetric tube (1.5×10^8 CFU/mL). A bacterial suspension was obtained.
(§6) LB dry powder was weighed, sterilized at 103.4 Kpa, 121.3° C. high-pressure steam for 15 min, and then placed it in a 40° C.-50° C. water bath. A sterile empty plate (inner diameter 9 cm) was placed on the surface of the ultra-clean table water table, and […] to the plate. The thickness of each plate was 3 mm to 4 mm. After the plate was cooled at room temperature, it was stored in the refrigerator at 2° C.-8° C. A sterile cotton swab was used to dip the bacterial solution and to evenly coat the surface of the LB plate 3 times. After inoculation of the bacterial suspension, the LB plate was dried at room temperature for 3 min to 5 min. Sterile forceps were used to closely attach the antibacterial drug paper to the dish. The dish was put upside down and placed in a 37° C. incubator for 24 h. The results were observed by measuring the diameter. Taking 0.5% DMSO solution as a negative control, the antibacterial activity is expressed by the diameter of the inhibition zone. The inhibition zone >17 mm, sensitive; the inhibition zone of 15 mm-16 mm, intermediary; the inhibition zone <14 mm, drug resistance.

[2] = tested on: multi-resistant Staphylococcus aureus 575 (MRSA-575); assay: paper diffusion method drug sensitivity test, MRSA-575; conditions: 30 μg/tablet; for Zone of inhibition, MRSA-575: paper 6.35 mm diameter, LB plate, 37° C., 24 h, >17 mm sensitive, 15 mm-16 mm intermediary, <14 mm drug resistance; for inhibitory effect (in words) on multi-drug resistant Staphylococcus aureus 575: paper diffusion, summary of FIGS. 1-3 and Table 1
Procedure: as §1, §2, §3, §4, §5, §6

[3] = tested on: multi-resistant Staphylococcus aureus 596 (MRSA-596); assay: paper diffusion method drug sensitivity test, MRSA-596; conditions: 30 μg/tablet; for Zone of inhibition, MRSA-596: paper 6.35 mm diameter, LB plate, 37° C., 24 h, >17 mm sensitive, 15 mm-16 mm intermediary, <14 mm drug resistance; for inhibitory effect (in words) on multi-drug resistant Staphylococcus aureus 596: paper diffusion, summary of FIGS. 1-3 and Table 1
Procedure: as §1, §2, §3, §4, §5, §6

SMILES | Zone of inhibition, MRSA-206 [1] [mm] | Zone of inhibition, MRSA-575 [2] [mm] | Zone of inhibition, MRSA-596 [3] [mm] | inhibitory effect (in words) on multi-drug resistant Staphylococcus aureus 206 [1] | inhibitory effect (in words) on multi-drug resistant Staphylococcus aureus 575 [2] | inhibitory effect (in words) on multi-drug resistant Staphylococcus aureus 596 [3]
CN[C@H](CC(C)C)C(=O)N[C@H]1C(=O)N[C@@H](CC(N)=O)C(=O)N[C@H]2C(=O)N[C@H]3C(=O)N[C@H](C(=O)N[C@H](C(=O)O)c4cc(O)cc(O)c4-c4cc3ccc4O)[C@H](O)c3ccc(c(Cl)c3)Oc3cc2cc(c3O[C@@H]2O[C@H](CO)[C@@H](O)[C@H](O)[C@H]2O[C@H]2C[C@](C)(N)[C@H](O)[C@H](C)O2)Oc2ccc(cc2Cl)[C@H]1O [Vancomycin] | 15 | 17 | 23 | – | – | –
C=C[C@]1(C)C[C@@H](OC(=O)COC(=O)C2CN(C3CC3)c3cc(Cl)c(F)cc3C2=O)[C@]2(C)CC[C@@H](C)[C@@]3(CCC(=O)[C@@H]23)[C@@H](C)[C@@H]1O (stereo partly drawn) [2-(((3aS,4R,5S,6S,8R,9R,9aR,12R)-5-hydroxy-4,6,9,12-tetramethyl-1-oxo-6-vinyldecahydro-3a, 9-propanocyclopenta[8]annulen-8-yl)oxy)-2-oxoethyl-7-chloro-1-cyclopropyl-6-fluoro-4-oxo-1,2,3,4-tetrahydroquinoline-3-carboxylate] | 16 | 12 | 25 | strong inhibitory effects | strong inhibitory effects | strong inhibitory effects
C=C[C@]1(C)C[C@@H](OC(=O)CO)[C@]2(C)[C@H](C)CC[C@]3(CCC(=O)[C@H]32)[C@@H](C)[C@@H]1O [Pleuromulin] | 0 | 0 | 0 | no inhibitory effect | no inhibitory effect | no inhibitory effect
O=C(O)c1cn(C2CC2)c2cc(Cl)c(F)cc2c1=O [7-Chloro-1-cyclopropyl-6-fluoro-1,4-dihydro-4-oxoquinoline-3-carboxylic acid] | 0 | 0 | 0 | no inhibitory effect | no inhibitory effect | no inhibitory effect
